# Values quoted from earlier work, collected in patent US6534676B2, “Method to treat chronic heart failure and/or elevated cholesterol levels using 3,5-diiodothyropropionic acid and method to prepare same” (The Arizona Board of Regents on Behalf of the University of …, priority 2001, dated 2003).
# How the values were obtained:
# [1] = short-term intravenous, patients with advanced congestive failure; cited from earlier work
# [2] = background statement; cited from earlier work
SMILES,cardiac output and arterial vascular resistance [1],half-life [2]
"N[C@@H](Cc1cc(I)c(Oc2ccc(O)c(I)c2)c(I)c1)C(=O)O [T3, 3′,3,5-L-triiodothyrone]",improve cardiac output and decrease arterial vascular resistance,two days or less
"NC(Cc1cc(I)c(Oc2cc(I)c(O)c(I)c2)c(I)c1)C(=O)O [Thyroxine, 3,5,3′5′-L-thyronine]",,6 to 7 days
